In ChEMBL document CHEMBL5579825, “Exploration of 1-(indolin-1-yl)-2-(thiazol-2-yl)ethan-1-one derivatives as novel anti-HBV agent with potential TLR7-agonistic effect” (Eur J Med Chem, 2024):
The source made the active and inactive calls. The rule behind the calls is not given here.

Assays:
Hepatitis B virus [1] = test: Antiviral activity against HBV infected in human HepG2.A64 cells assessed as inhibition of viral DNA replication pre-transfected cells with viral genome followed by compound treatment for 3 days by RT-PCR analysis; assay type: functional, organism-based; conditions: HepG2.A64, 72 h
[2] = Cytotoxicity against human HepG2.A64 cells incubated for 72 hrs by CCK8 assay; assay type: toxicity, cell-based
Hepatitis B virus [3] = test: Antiviral activity against HBV infected in LAM/ETV-resistant human HepG2.A64 cells assessed as inhibition of viral DNA replication at 100 uM pre-transfected cells with viral genome followed by compound treatment for 72 hrs by RT-PCR analysis relative to control; assay type: functional
[4] = Cytotoxicity against human HepG2.2.15 cells incubated for 72 hrs by CCK8 assay; assay type: toxicity, cell-based, HepG2 2.2.15
Hepatitis B virus [5] = test: Antiviral activity against HBV infected in human HepG2.2.15 cells assessed as inhibition of viral DNA replication at 100 uM pre-transfected cells with viral genome followed by compound treatment for 72 hrs by RT-PCR analysis relative to control; assay type: functional
[6] = Inhibition of HBsAg secretion in human HepG2.2.15 cells treated for 6 days with replacement of medium containing compound on every 2 days by […]; assay type: functional, cell-based; conditions: HepG2 2.2.15
Hepatitis B virus [7] = test: (§1) Antiviral activity against HBV infected in human HepG2.2.15 cells assessed as inhibition of viral DNA replication pre-transfected cells with viral genome followed by compound treatment for 6 days with replacement of medium containing compound on every 2 days by RT-PCR analysis; assay type: functional, organism-based
Hepatitis B virus [8] = test: as §1, with “replication at 4 uM” for “replication”, “analysis relative to control” for “analysis”; assay type: functional; conditions: HepG2.2.15, 144 h, time 6 day
[9] = Selectivity index, ratio of CC50 for human HepG2.2.15 cells to IC50 for HBsAg secretion in human HepG2.2.15 cells; assay type: toxicity, cell-based; conditions: for selectivity ratio: HepG2.2.15 cells, read-out: Ratio CC50/IC50
[10] = Selectivity index, ratio of CC50 for human HepG2.2.15 cells to IC50 for HBV infected in human HepG2.2.15 cells assessed as inhibition of viral DNA replication; assay type: toxicity, cell-based; conditions: for selectivity ratio: HepG2.2.15 cells, read-out: Ratio CC50/IC50
Hepatitis B virus [11] = test: Antiviral activity against HBV infected in human HepG2.2.15 cells assessed as inhibition of viral DNA replication at 10 uM pre-transfected cells with viral genome followed by compound treatment for 72 hrs by RT-PCR analysis relative to control; assay type: functional
Hepatitis B virus [12] = test: Antiviral activity against HBV infected in LAM/ETV-resistant human HepG2.A64 cells assessed as inhibition of viral DNA replication at 10 uM pre-transfected cells with viral genome followed by compound treatment for 72 hrs by RT-PCR analysis relative to control; assay type: functional
Hepatitis B virus [13] = test: Antiviral activity against HBV infected in LAM/ETV-resistant human HepG2.A64 cells assessed as inhibition of viral DNA replication at 4 uM pre-transfected cells with viral genome followed by compound treatment for 72 hrs by RT-PCR analysis relative to control; assay type: functional
Hepatitis B virus [14] = test: Antiviral activity against HBV infected in human HepG2.2.15 cells assessed as inhibition of viral DNA replication at 4 uM pre-transfected cells with viral genome followed by compound treatment for 72 hrs by RT-PCR analysis relative to control; assay type: functional
[15] = Selectivity index, ratio of CC50 for human HepG2.A64 cells to IC50 for HBV infected in human HepG2.A64 cells assessed as inhibition of viral DNA replication; assay type: toxicity, cell-based; conditions: read-out: Ratio CC50/IC50
[16] = Half life in Sprague-Dawley rat at 10 mg/kg, IG measured for 12 hrs by UPLC-MS/MS analysis; assay type: ADME, organism-based; conditions: in vivo, po
[17] = Tmax in Sprague-Dawley rat at 10 mg/kg, IG measured for 12 hrs by UPLC-MS/MS analysis; assay type: ADME, organism-based; conditions: in vivo, po
PBMC [18] = test: Induction of IFN-alpha production in human PBMC cells incubated for 24 hrs by ELISA; assay type: functional, cell-based; conditions: dose 0.4-10 µM
[19] = AUClast in Sprague-Dawley rat at 10 mg/kg, IG measured for 12 hrs by UPLC-MS/MS analysis; assay type: ADME, organism-based; conditions: in vivo, po
PBMC [20] = test: Induction of IL-2 production in human PBMC cells incubated for 24 hrs by ELISA; assay type: functional, cell-based; conditions: dose 0.4-10 µM
[21] = Cmax in Sprague-Dawley rat at 10 mg/kg, IG measured for 12 hrs by UPLC-MS/MS analysis; assay type: ADME, organism-based; conditions: in vivo, po
HEK-293T = test: Effect on NF-kappaB/Renilla luciferase expression in HEK293T cells at 0.4 to 10 uM incubated for 48 hrs by Dual-luciferase reporter gene assay; assay type: functional, cell-based; conditions: Homo sapiens, dose 0.4-10 µM
PBMC [22] = test: Induction of TNF-alpha production in human PBMC cells incubated for 24 hrs by ELISA; assay type: functional, cell-based; conditions: dose 0.4-10 µM
Toll-like receptor 7 = molecular target: T1, Toll-like receptor 7 (Homo sapiens, UniProt Q9NYK1); test: Binding affinity to recombinant human TLR7 assessed as dissociation constant by SPR analysis
T1 sequence (Q9NYK1 whole entry): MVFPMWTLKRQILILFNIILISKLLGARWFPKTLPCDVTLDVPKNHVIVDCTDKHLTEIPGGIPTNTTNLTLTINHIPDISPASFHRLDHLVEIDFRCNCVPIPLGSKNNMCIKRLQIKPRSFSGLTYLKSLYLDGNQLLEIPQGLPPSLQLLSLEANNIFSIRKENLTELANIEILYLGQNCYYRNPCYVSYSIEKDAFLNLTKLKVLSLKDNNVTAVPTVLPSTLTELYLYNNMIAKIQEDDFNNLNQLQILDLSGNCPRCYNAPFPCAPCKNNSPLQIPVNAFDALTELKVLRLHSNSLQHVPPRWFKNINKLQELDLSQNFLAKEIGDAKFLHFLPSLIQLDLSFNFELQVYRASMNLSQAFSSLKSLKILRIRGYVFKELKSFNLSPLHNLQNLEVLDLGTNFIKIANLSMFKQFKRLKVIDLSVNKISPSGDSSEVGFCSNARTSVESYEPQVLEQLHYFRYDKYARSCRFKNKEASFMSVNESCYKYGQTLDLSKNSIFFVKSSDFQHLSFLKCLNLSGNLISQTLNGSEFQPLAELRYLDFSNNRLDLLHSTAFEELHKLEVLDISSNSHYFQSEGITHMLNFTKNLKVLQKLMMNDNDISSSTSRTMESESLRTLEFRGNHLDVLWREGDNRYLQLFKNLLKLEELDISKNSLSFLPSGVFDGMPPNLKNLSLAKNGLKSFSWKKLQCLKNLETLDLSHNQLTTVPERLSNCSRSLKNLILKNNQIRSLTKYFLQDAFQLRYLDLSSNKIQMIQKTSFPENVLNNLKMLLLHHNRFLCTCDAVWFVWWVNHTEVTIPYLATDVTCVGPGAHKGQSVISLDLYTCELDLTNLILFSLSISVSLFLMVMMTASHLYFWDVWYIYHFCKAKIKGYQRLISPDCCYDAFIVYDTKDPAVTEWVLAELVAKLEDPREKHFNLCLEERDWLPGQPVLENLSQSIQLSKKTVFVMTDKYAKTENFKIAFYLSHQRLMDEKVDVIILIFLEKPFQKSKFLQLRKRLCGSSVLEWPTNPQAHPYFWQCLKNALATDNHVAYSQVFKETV

[23] = molecular target: T2, Toll-like receptor 7 (Homo sapiens) (UniProt Q9NYK1); test: Agonist activity at human TLR7 expressed in HEK293T cells co-transfected with NF-kappaB/Renilla luciferase incubated for 48 hrs by Dual-luciferase reporter gene assay; assay type: cell-based; conditions: filed as agonist, dose 0.4-10 µM
T2 sequence (whole entry): T1 sequence (Q9NYK1 whole entry)

Row | Structure (SMILES) | IC50 (Hepatitis B virus [1]) [µM] | CC50 at 72 h [2] [µM] | CC50 at 72 h [4] [µM] | IC50 [6] [µM] | IC50 (Hepatitis B virus [7]) [µM] | inhibition at 4 µM (Hepatitis B virus [8]) [%] | Ratio CC50/IC50 [9] | selectivity ratio [10] | selectivity ratio [9] | further results
1 | Nc1ccn([C@@H]2CS[C@H](CO)O2)c(=O)n1 [LAMIVUDINE] | > 100 | > 100 | > 100 | > 100 | < 0.1 | 90.8 | Not Active | > 1000 |  | inhibition at 100 µM (Hepatitis B virus [3]): 17.8%; inhibition at 100 µM (Hepatitis B virus [5]): 92.3%
2 | C=C1[C@H](CO)[C@@H](O)C[C@@H]1n1cnc2c(=O)[nH]c(N)nc21 [ENTECAVIR ANHYDROUS] |  |  |  |  |  |  |  |  |  | inhibition at 10 µM (Hepatitis B virus [11]): 98.1%; inhibition at 10 µM (Hepatitis B virus [12]): 20.1%
3 | O=C(Cc1csc(COc2ccccc2)n1)N1CCc2cc(Cl)ccc21 | 0.57 | > 20 | > 50 | 26.1 | 0.23 | 80 |  | > 217 | > 1.92 | inhibition at 4 µM (Hepatitis B virus [13]): 73.7%; inhibition at 4 µM (Hepatitis B virus [14]): 74.5%; selectivity ratio [15]: > 35.1
4 | O=C(Cc1csc(COc2ccccc2)n1)N1CCc2c(F)cccc21 |  |  | > 50 | 30.5 | 3.9 | 52.2 |  | > 12.8 | > 1.64 | 
5 | O=C(Cc1csc(COc2ccccc2)n1)N1CCc2cc(Br)ccc21 |  |  | > 50 | > 50 | 0.38 | 94 | Not Active | > 132 |  | 
6 | O=C(Cc1csc(COc2cccc(Br)c2)n1)N1CCc2ccccc21 |  |  | > 50 | 42.7 | 0.84 | 73.4 |  | > 59.5 | > 1.17 | 
7 | Cc1cccc(OCc2nc(CC(=O)N3CCc4ccccc43)cs2)c1 |  |  | > 50 | 20.4 | 0.74 | 65.4 |  | > 67.6 | > 2.45 | 
8 | O=C(Cc1csc(COc2ccccc2F)n1)N1CCc2ccccc21 | 0.36 | > 20 | > 50 | 25.9 | 0.13 | 69.2 |  | > 384 | > 1.93 | half-life [16]: 2 h; Tmax [17]: 2 h; Activity (PBMC [18]): Dose-Dependent Effect; inhibition at 4 µM (Hepatitis B virus [13]): 74.2%; AUC(0-t) at 12 h [19]: 252 ng·h/mL; Activity (PBMC [20]): Dose-Dependent Effect; Cmax [21]: 66 ng/mL; inhibition at 4 µM (Hepatitis B virus [14]): 71.7%; Activity (HEK-293T): Active; Activity (PBMC [22]): Dose-Dependent Effect; selectivity ratio [15]: > 55.6; Kd (Toll-like receptor 7): 7.06 µM; Activity [23]: Dose-Dependent Effect; Ratio CC50/IC50 [10]: > 384.62
9 | O=C(Cc1csc(COc2ccccc2)n1)N1CCc2ccccc21 |  |  | > 50 | > 50 | 17.2 | 45.4 | Not Active | > 2.91 |  | 
